One may read the Kd as the concentration at which binding is half-saturated. Higher therefore signals lower affinity.

A value given as a limit tells only on which side of the number the result lay.

One assay addresses gp120 (Human immunodeficiency virus type 1 group M subtype B, UniProt P03375). Conditions: peptide conjugated latex beads; for Agglutinin test, Colloidal gold conjugated gp120: protein contents 1 μg/ml; for Agglutinin test, gp120 protein: unlabelled gp120, contents 1 μg/ml.
Assay [1] relates to KK-1 (freshly isolated HIV). As to the kind of experiment: Investigation of neutralizing activity of HIV-1 (CPE in MT-4 cells), KK-1. The class given is cell-based. Conditions: content to inhibit infection (CPE), 6 days, NE = no effect. An excerpt:
(§1) Then, we used AZT as a positive control.

Assay [2] has as its system HTLV-IIIB (laboratory strain). Kind of assay: Investigation of neutralizing activity of HIV-1 (CPE in MT-4 cells), HTLV-IIIB. Conditions: content to inhibit infection (CPE), 6 days, NE = no effect. The class given is cell-based.
Description: as §1

Assay [3] deals with HIV-1-gp120 (Immuno Diagnosis Co.), horseradish peroxidase labeled and enzyme unlabeled (HIV-1). As to the kind of experiment: Scatchard plot; HRP-labeled and unlabeled gp120 added to peptide carrier.
Assay [4] concerns serum of hepatitis C or B patients, laboratory strain and freshly isolated strain, virus lysate conjugated colloidal gold. As to the kind of experiment: Specificity test with peptide conjugated latex beads against viruses (Table 17). Format: binding. An excerpt: The virus that was in use in this enforcement example was serum, laboratory strain and a freshly isolated strain that was gathered from patients of hepatitis C or B at final stage. Then, we used virus lysate that conjugated colloidal gold as previously.

Assay [5] addresses HIV-1 kk-1 (virus; gp120 on it) (HIV-1 kk-1). As to the kind of experiment: column absorption of KK-1 virus in human serum; p24 antigen ELISA of lysed bound virus (starting material 2,350). In general terms: ELISA stands for enzyme-linked immunosorbent assay.
For assay [6] the target is unchanged. As to the kind of experiment: column absorption of KK-1 virus in human serum; p24 antigen ELISA.
Setting [7] is: Sample/Virus No. 1: HIV-1 IIIB, 1.0 × 10^5 TCID50.
Setting [8] is: Sample/Virus No. 2: HIV-1 Lav 1, 1.0 × 10^5 TCID50.
Where [9] appears, read: Sample/Virus No. 3: HIV-1 kk-1, 1.0 × 10^4.5 TCID50.
[10] abbreviates: Sample/Virus No. 4: HIV-2 Lav2, 1.0 × 10^6 TCID50.
Where [11] appears, read: Sample/Virus No. 5: Serum of HCV patients, titer indistinct.
The mark [12] stands for this setting: Sample/Virus No. 6: Serum of HBV patients, titer indistinct.
Where [13] appears, read: Sample/Virus No. 7: Hepatitis B surface antigen(HbsAg), 1.6 × 10^5 units.
[14] abbreviates: Sample/Virus No. 8: Valaricella Zoster valirus, 9.5 × 10^5 units.
[15] abbreviates: Sample/Virus No. 9: Argubella Zoster valirus (VZV), 4.9 × 10^5 units.
[16] abbreviates: Sample/Virus No. 10: HTLV-1 virul lysate, 1.1 × 10^5 units.
Setting [17] is: Sample/Virus No. 11: human cytomegalovirus (HCMV), 5.5 × 10^5 units.
[18] abbreviates: Sample/Virus No. 12: Epstein-Barr virus(EB virus), 9.9 × 10^5 units.

Take Asp-Val-Lys-Ala-Gly [No. 1 in Table 1]: on gp120, the “Agglutinin test, Colloidal gold conjugated gp120” value is on record as “Presence” and the “Agglutinin test, gp120 protein” value is recorded as “Absence”.
Consider “Phe-Arg-Lys-Ala-Ala (FRKAA; printed: Phe-Arg-Lys-Ala-Ala) [No. 8 in Table 3]”, for which the “Anti-HIV neutralizing activity (μg/ml) KK-1” value in assay [1] is 125 µg/mL. Also, the “Anti-HIV neutralizing activity (μg/ml) HTLV-IIIB” value in assay [2] stood at 125 µg/mL.
In assay [3], “No. 1 peptide of Table 1 (Asp-Val-Lys-Ala-Gly) bound to Sephadex 6MB” gave a Kd of 0.214 nM.
As for Table 1 No. 1 (DVKAG), the Presence of agglutinin entry in assay [4] (setting [7]) is on record as “+”; in assay [4] (setting [8]) it was “+”; in assay [4] (setting [9]), “+”; in assay [4] (setting [10]) it was “−”; in assay [4] (setting [11]), “−”; in assay [4] (setting [12]) it was “−”. For the same substance, the Presence of agglutinin entry in assay [4] (setting [13]), in assay [4] (setting [14]), in assay [4] (setting [15]), in assay [4] (setting [16]), in assay [4] (setting [17]) and in assay [4] (setting [18]) was “−” each time.
With Table 3 No. 6 (WWKAA), the Presence of agglutinin entry was “+” in assay [4] (setting [7]); “+” in assay [4] (setting [8]); “+” in assay [4] (setting [9]); “−” in assay [4] (setting [10]); “−” in assay [4] (setting [11]); “−” in assay [4] (setting [12]). The Presence of agglutinin entry in assay [4] (setting [13]), in assay [4] (setting [14]), in assay [4] (setting [15]), in assay [4] (setting [16]), in assay [4] (setting [17]) and in assay [4] (setting [18]) was “−” in each case.
In the case of Trp-Trp-Lys-Ala-Ala [No. 6 in Table 3], on gp120, the “Agglutinin test, Colloidal gold conjugated gp120” value is “Presence” and the “Agglutinin test, gp120 protein” value is recorded as “Absence”.
In turn, “No. 12 peptide of Table 3 (Tyr-Tyr-Lys-Ala-Ala) bound to cellulose type carrier” returned a p24(S/CO), fraction of column absorption in assay [5] of 205 S/CO. The percent of supplied virus absorbed in assay [6] was < 10%.
With “No. 12 peptide of Table 3 (Tyr-Tyr-Lys-Ala-Ala) bound to Sephadex 4B”, the Kd in assay [3] came to 0.497 nM.

The values are drawn from patent US7291337B2, “Peptide having an affinity for gp120” (Aspion Co., Ltd., priority 2000, dated 2007).
